According to PubChem BioAssay AID330 (DTP/NCI, 2004):
Toxic doses and inconclusive results are not listed. The calls were made as follows: active = survival T/C of 150% or more; inactive = T/C below 125% in these data.

Tested on: P388 leukemia ip, CD2F1 mice, survival T/C
Test: NCI In Vivo Anticancer Drug Screen. Data for tumor model P388 Leukemia (intraperitoneal) in CD2F1 (CDF1) mice
Conditions: endpoint: median survival time, higher = longer survival
Summary of the method: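 Mice carrying the transplanted tumor received test compound or vehicle. Survival was recorded in each group, and the value is the treated-group measurement divided by that of the vehicle-treated control group.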

[1] = dose: 6.25 mg/kg/injection, schedule: Q01DX005 (ip), vehicle: saline with Tween-80
[2] = dose: 12.5 mg/kg/injection, schedule: Q01DX005 (ip), vehicle: saline with Tween-80
[3] = dose: 25.0 mg/kg/injection, schedule: Q01DX005 (ip), vehicle: Klucel (hydroxypropylcellulose) (HPC)
[4] = dose: 50.0 mg/kg/injection, schedule: Q01DX005 (ip), vehicle: Klucel (hydroxypropylcellulose) (HPC)
[5] = dose: 50.0 mg/kg/injection, schedule: Q01DX009 (ip), vehicle: saline
[6] = dose: 100.0 mg/kg/injection, schedule: Q01DX009 (ip), vehicle: saline
[7] = dose: 50.0 mg/kg/injection, schedule: Q01DX009 (ip), vehicle: saline with Tween-80
[8] = dose: 100.0 mg/kg/injection, schedule: Q01DX009 (ip), vehicle: saline with Tween-80
[9] = dose: 12.5 mg/kg/injection, schedule: Q01DX009 (ip), vehicle: DMSO
[10] = dose: 200.0 mg/kg/injection, schedule: Q01DX009 (ip), vehicle: saline
[11] = dose: 60.0 mg/kg/injection, schedule: Q01DX005 (ip), vehicle: saline with Tween-80
[12] = dose: 120.0 mg/kg/injection, schedule: Q01DX005 (ip), vehicle: saline with Tween-80
[13] = dose: 240.0 mg/kg/injection, schedule: Q01DX005 (ip), vehicle: saline with Tween-80
[14] = dose: 200.0 mg/kg/injection, schedule: Q01DX009 (ip), vehicle: saline with Tween-80

Measured: T/C

CC(C)CNC12CN3CN(CN(C3)C1)C2
inactive: dose: 100.0 mg/kg/injection, schedule: Q04DX003 (ip), vehicle: saline 98 % of control | dose: 200.0 mg/kg/injection, schedule: Q04DX003 (ip), vehicle: saline 90 % of control | dose: 400.0 mg/kg/injection, schedule: Q04DX003 (ip), vehicle: saline 92 % of control

CCCCCCC(=O)/C=C/c1ccc(OCc2ccccc2)c(OCc2ccccc2)c1
inactive: [1] 92 % of control | [2] 92 % of control

CC(C)(C)[Si](C)(C)O[C@@H]1C=C(S(=O)(=O)c2ccccc2)[C@H](N2CCSCC2)C1
inactive: dose: 12.5 mg/kg/injection, schedule: Q01DX005 (ip), vehicle: Klucel (hydroxypropylcellulose) (HPC) 101 % of control | [3] 97 % of control | [4] 92 % of control

CN1c2ccccc2S(=O)(=O)n2c(Cc3ccccc3)nnc21
inactive: dose: 100.0 mg/kg/injection, schedule: Q04DX002 (ip), vehicle: saline with Tween-80 92 % of control | dose: 200.0 mg/kg/injection, schedule: Q04DX002 (ip), vehicle: saline with Tween-80 90 % of control | dose: 400.0 mg/kg/injection, schedule: Q04DX002 (ip), vehicle: saline with Tween-80 90 % of control

CN(C)C(=O)NC1(N(C)C)CC1
inactive: dose: 25.0 mg/kg/injection, schedule: Q01DX009 (ip), vehicle: saline 104 % of control | [5] 100 % of control | [6] 97 % of control

Cc1cc(OC(=O)N(C)C)nc(SCC(=O)c2ccc(Cl)cc2)n1
inactive: dose: 50.0 mg/kg/injection, schedule: Q01DX009 (ip), vehicle: Klucel (hydroxypropylcellulose) (HPC) 99 % of control | dose: 100.0 mg/kg/injection, schedule: Q01DX009 (ip), vehicle: Klucel (hydroxypropylcellulose) (HPC) 103 % of control | dose: 200.0 mg/kg/injection, schedule: Q01DX009 (ip), vehicle: Klucel (hydroxypropylcellulose) (HPC) 107 % of control

O=S1(=O)C(c2ccc(F)cc2)=C(O)c2cc3ccccc3nc21
inactive: [7] 112 % of control | [8] 97 % of control

CC(=O)C(C(C)=O)[N+](=O)[O-].CC(=O)C(C(C)=O)[N+](=O)[O-].[Cu]
inactive: [1] 100 % of control | [2] 105 % of control

O=S(=O)(Nc1ccccn1)c1ccc(N(CCCl)CCCl)cc1
inactive: dose: 100.0 mg/kg/injection, schedule: Q04DX003 (ip), vehicle: saline with Tween-80 95 % of control | dose: 200.0 mg/kg/injection, schedule: Q04DX003 (ip), vehicle: saline with Tween-80 95 % of control

O=[N+]([O-])c1cc(Cl)c(Cl)cc1NS(=O)(=O)c1ccccc1
inactive: dose: 150.0 mg/kg/injection, schedule: Q01DX009 (ip), vehicle: saline with Tween-80 90 % of control | dose: 150.0 mg/kg/injection, schedule: Q04DX003 (ip), vehicle: saline with Tween-80 100 % of control | dose: 300.0 mg/kg/injection, schedule: Q01DX009 (ip), vehicle: saline with Tween-80 100 % of control | dose: 300.0 mg/kg/injection, schedule: Q04DX003 (ip), vehicle: saline with Tween-80 100 % of control | dose: 600.0 mg/kg/injection, schedule: Q04DX003 (ip), vehicle: saline with Tween-80 95 % of control

Cc1cccn2cc(CC(=O)O)nc12
inactive: dose: 100.0 mg/kg/injection, schedule: Q01DX001 (ip), vehicle: saline 105 % of control | dose: 200.0 mg/kg/injection, schedule: Q01DX001 (ip), vehicle: saline 104 % of control | dose: 400.0 mg/kg/injection, schedule: Q01DX001 (ip), vehicle: saline 109 % of control

CC1CC2=C(C1)C(C1(C)C(=O)CC3C(C1=O)C3(C)C)C(C)C2=O (centres undefined)
inactive: dose: 12.5 mg/kg/injection, schedule: Q01DX001 (ip), vehicle: Klucel (hydroxypropylcellulose) (HPC) 100 % of control | dose: 25.0 mg/kg/injection, schedule: Q01DX001 (ip), vehicle: Klucel (hydroxypropylcellulose) (HPC) 96 % of control | dose: 50.0 mg/kg/injection, schedule: Q01DX001 (ip), vehicle: Klucel (hydroxypropylcellulose) (HPC) 102 % of control | dose: 100.0 mg/kg/injection, schedule: Q01DX001 (ip), vehicle: Klucel (hydroxypropylcellulose) (HPC) 96 % of control

O=S1(=O)N=C([O-])c2ccc(C[N+]3(CCCl)CCN(CCCl)CC3)cc21
inactive: [9] 87 % of control | dose: 25.0 mg/kg/injection, schedule: Q01DX009 (ip), vehicle: DMSO 105 % of control | dose: 50.0 mg/kg/injection, schedule: Q01DX009 (ip), vehicle: DMSO 87 % of control | dose: 100.0 mg/kg/injection, schedule: Q01DX009 (ip), vehicle: DMSO 115 % of control

O=C1OCC(Cc2ccc3c(c2)OCO3)C1Cc1ccc2c(c1)OCO2 (centres undefined)
inactive: [5] 109 % of control | [6] 93 % of control | [10] 99 % of control

O=C(C[n+]1cc2ccccc2cc1/C=N/O)c1ccccc1
inactive: dose: 50.0 mg/kg/injection, schedule: Q01DX009 (ip), vehicle: saline sonified 100 % of control | dose: 100.0 mg/kg/injection, schedule: Q01DX009 (ip), vehicle: saline sonified 100 % of control | dose: 200.0 mg/kg/injection, schedule: Q01DX009 (ip), vehicle: saline sonified 86 % of control

O=C(CI)Nc1ccc2[nH]c(=O)cc(C(=O)O)c2c1
inactive: [3] 100 % of control | [4] 101 % of control | dose: 100.0 mg/kg/injection, schedule: Q01DX005 (ip), vehicle: Klucel (hydroxypropylcellulose) (HPC) 108 % of control

CCCC1OC1(CC)COC(=O)NC (centres undefined)
inactive: dose: 50.0 mg/kg/injection, schedule: Q01DX005 (ip), vehicle: saline with Tween-80 100 % of control | dose: 100.0 mg/kg/injection, schedule: Q01DX005 (ip), vehicle: saline with Tween-80 101 % of control | dose: 200.0 mg/kg/injection, schedule: Q01DX005 (ip), vehicle: saline with Tween-80 117 % of control

COC(=O)Cc1nc2ccccc2s1
inactive: [11] 102 % of control | [12] 104 % of control | [13] 103 % of control

CCN(CC)CCn1cnc(C#N)c1N
inactive: [5] 101 % of control | [6] 100 % of control | [10] 108 % of control

C/C(CC(O)(c1ccccc1)c1ccccc1)=N\SC(c1ccccc1)(c1ccccc1)c1ccccc1
inactive: dose: 100.0 mg/kg/injection, schedule: Q01DX001 (ip), vehicle: saline with Tween-80 106 % of control | dose: 200.0 mg/kg/injection, schedule: Q01DX001 (ip), vehicle: saline with Tween-80 100 % of control | dose: 400.0 mg/kg/injection, schedule: Q01DX001 (ip), vehicle: saline with Tween-80 98 % of control

CNc1nc(Cl)cc2onc(C)c12
inactive: [11] 94 % of control | [12] 100 % of control | [13] 103 % of control

CCOC(=O)N1CCC(n2nncc2OCC)CC1
inactive: dose: 100.0 mg/kg/injection, schedule: Q04DX002 (ip), vehicle: Klucel (hydroxypropylcellulose) (HPC) 102 % of control | dose: 200.0 mg/kg/injection, schedule: Q04DX002 (ip), vehicle: Klucel (hydroxypropylcellulose) (HPC) 102 % of control | dose: 400.0 mg/kg/injection, schedule: Q04DX002 (ip), vehicle: Klucel (hydroxypropylcellulose) (HPC) 105 % of control

CCN(CC)CCCC(C)Nc1cc(C)nc2cc(N(C)C)ccc12 (centres undefined)
inactive: dose: 6.25 mg/kg/injection, schedule: Q01DX009 (ip), vehicle: Klucel (hydroxypropylcellulose) (HPC) 99 % of control | dose: 12.5 mg/kg/injection, schedule: Q01DX009 (ip), vehicle: Klucel (hydroxypropylcellulose) (HPC) 101 % of control | dose: 25.0 mg/kg/injection, schedule: Q01DX009 (ip), vehicle: Klucel (hydroxypropylcellulose) (HPC) 109 % of control

O=c1cc[nH]c(=S)[nH]1.[Cu+2]
inactive: dose: 1.56 mg/kg/injection, schedule: Q01DX009 (ip), vehicle: DMSO 100 % of control | dose: 3.12 mg/kg/injection, schedule: Q01DX009 (ip), vehicle: DMSO 99 % of control | dose: 6.25 mg/kg/injection, schedule: Q01DX009 (ip), vehicle: DMSO 86 % of control | [9] 100 % of control

COC(=O)c1ccccc1NC(C)=NC(C)(C)C
inactive: [7] 103 % of control | [8] 90 % of control | [14] 90 % of control

Cc1ccc(CSCc2c(CSCc3ccc(C)cc3)c(CSCc3ccc(C)cc3)c(CSCc3ccc(C)cc3)c(CSCc3ccc(C)cc3)c2CSCc2ccc(C)cc2)cc1
inactive: [7] 92 % of control | [8] 97 % of control | [14] 86 % of control
